Experimental data as given in US8586354B2, “Adenoviruses, nucleic acids that code for the same and the use of said viruses” (priority 2003, dated 2013).

Tests used:
U373 tumour cells = assay: Southern blot of adenoviral replication in U373 cells after cytostatic; assay type: cell-based
Experimental: In order to determine the effect of Irinotecan on adenoviral replication 10^6 U373 tumour cells were plated in 10 cm^2 Petri dishes. In a first reaction 5 μM Irinotecan was added after 24 hours. After another 24 hours the cells were infected with 10 pfu/cell dl520. After incubation of 3 days without Irinotecan DNA was isolated in accordance with the procedure described in example 10.
In a parallel reaction the thus prepared U373-cells were not pre-incubated with Irinotecan. After 48 hours of cultivating the cells without Irinotecan, they were infected with 10 pfu/cell dl520 and subsequently incubated without Irinotecan for another 3 days. DNA was isolated as described above.
Subsequently 2 μg DNA were digested with restriction enzyme Kpn I and a Southern Blot analysis performed. A part of the adenoviral genome (position: 22734-24235) generated by means of PCR was used as a probe.
In order to test the effect of Trichostatin A on adenoviral replication, 10^6 U373 tumour cells were plated in 10 cm^2 Petri dishes. After 24 hours 0.25, 0.5 and 0.75 μM Trichostatin A was added. After another 24 hours the cells were infected with 10 pfu/cell dl520.
After 3 days of incubation in medium without Trichostatin DNA was isolated. Subsequently 2 μg DNA were digested with restriction enzyme Kpn I and a Southern Blot analysis performed. […]

[1] = system: Coxsackievirus-adenovirus-receptor (CAR); assay: FACS analysis of CAR expression on U373 cells; assay type: cell-based; conditions: 1 μM Trichostatin
Experimental: 200,000 U373 cells were plated in 6 well plates. After 24 hours the cells were cultivated with 1 μM Trichostatin for 24 hours. After another 24 hours the cells were isolated. Subsequently, analysis of CAR expression was performed according to a standard protocol using Facs-analysis and the primary antibody anti-CAR clone RmcB from the company Upstate, and a rabbit-anti-mouse FITC as secondary antibody (company DAKO).

U2OS cells = assay: Oncolytic assay with daunorubicine, U2OS; assay type: cell-based, human; conditions: 40 ng/ml daunorubicine
Experimental: (§1) In the practising of the oncolytic assays the following procedure was followed: 200,000 cells (HeLa and U2OS, respectively) were plated into each well of a 6 well plate. On the next day 40 ng/ml (final concentration) of daunorubicine were added. After 3 hours of incubation the cells were infected with 10 and 30 pfu dl520/cell, respectively. Subsequently, the cells were incubated in cytostatic free medium. After 3-5 days the cells were stained using crystal violet.

HeLa cells = assay: Oncolytic assay with daunorubicine, HeLa; assay type: cell-based; conditions: 40 ng/ml daunorubicine
Experimental: as §1

CCc1c2c(nc3ccc(OC(=O)N4CCC(N5CCCCC5)CC4)cc13)-c1cc3c(c(=O)n1C2)COC(=O)[C@]3(O)CC [Irinotecan]
adenoviral replication (dl520) compared to untreated control (U373 tumour cells; 5 μM Irinotecan 24 h before 10 pfu/cell dl520, 3 days): significantly increased

CC(/C=C/C(=O)NO)=C\[C@@H](C)C(=O)c1ccc(N(C)C)cc1 [Trichostatin A]
CAR-positive cells [1]: 56.2% | adenoviral replication (dl520) compared to untreated controls (U373 tumour cells; 0.25, 0.5 and 0.75 μM Trichostatin A 24 h before 10 pfu/cell dl520, 3 days): significantly increased

COc1cccc2c1C(=O)c1c(O)c3c(c(O)c1C2=O)C[C@@](O)(C(C)=O)C[C@@H]3O[C@H]1C[C@H](N)[C@H](O)[C@H](C)O1 [daunorubicine]
effect on replication of dl520 (U2OS cells): induces the replication of dl520 | effect on replication of dl520 (HeLa cells): induces the replication of dl520
